Experimental data taken from patent publication US20230181564A1, “Potent Tetrahydroquinolone Eliminates Apicomplexan Parasites” (The University of Chicago, priority 2020, published 2023).

Experiments:
[1] = system: T. gondii EGS strain bradyzoites; test: In vitro challenge assay for EGS strain bradyzoites in HFF; format: cell-based, Toxoplasma gondii; conditions: 500 nM
Experimental: PBS Sol/Toxicity pH7.4 refers to solubility of the compound in Phosphate Buffered Saline (PBS) at pH7.4. […] Tachy/Brady IC50 was determined in studies in which cultures of parasites in HFF were treated with varying concentrations of the compound and there was 50% inhibition of the replication (number) of parasites. Parasites were RH-YFP expressing tachyzoites (Tachy) and EGS (Brady) strains. Studies of effects of inhibitors on HFF or on T.gondii tachyzoites were performed with triplicate wells in at least two biological replicate experiments. Studies of effects on bradyzoites were performed at least twice in at least two biological replicate experiments. Compounds with much less inhibition of mammalian than T. gondii cytochrome bc in the saffarine enzyme assay (indicated by **) provide potential to further develop compounds, if unanticipated toxicity occurs from JAG21. […]
Cells were fixed using 4% paraformaldehyde and stained with Fluorescein-labeled Dolichos Biflorus Agglutinin, DAPI, and BAG1. […] Effects of compounds were quantitated by counting cysts in controls and treated cultures. Dolichos staining delimited structures and single organisms that remained were counted in a representative field of view. This was then multiplied by a factor determined by the total area of the cover slip in order to estimate the number of cysts and organisms in each condition. […]

[2] = target: T1, P. falciparum bc1 complex cytochrome c reductase (Pfbc1) (Plasmodium falciparum, UniProt Q02768); test: Pfbc1 native assay (cytochrome c reduction by parasite extract); format: biochemical; conditions: atovaquone 1 μM positive control, mean±S.D., N=4
T1 construct: Parasite extract was then prepared by disruption with a sonicating probe; endogenous in cells; host or cells: P. falciparum 3D7 blood-stage parasites freed by saponin, sonicated extract
T1 sequence (Q02768 1-376): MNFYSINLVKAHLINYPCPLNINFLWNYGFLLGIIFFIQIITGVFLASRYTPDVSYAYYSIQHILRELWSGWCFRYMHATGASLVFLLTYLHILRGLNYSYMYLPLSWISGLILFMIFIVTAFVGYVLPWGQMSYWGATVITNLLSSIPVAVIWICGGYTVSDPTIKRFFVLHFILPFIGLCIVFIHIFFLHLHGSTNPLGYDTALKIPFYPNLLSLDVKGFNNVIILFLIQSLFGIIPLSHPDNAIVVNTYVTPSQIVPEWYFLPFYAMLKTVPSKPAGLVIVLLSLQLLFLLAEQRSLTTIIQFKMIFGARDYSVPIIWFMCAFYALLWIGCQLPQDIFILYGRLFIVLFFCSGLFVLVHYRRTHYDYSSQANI
Experimental: Enzyme assays. P. falciparum 3D7 strain were obtained from the Liverpool School of Tropical Medicine. Protease cocktail inhibitor was obtained from Roche. Bradford protein assay dye reagent was obtained from Bio-Rad. All other reagents were obtained from Sigma-Aldrich. Decylubiquinol was produced as per Fisher et al. (2009). In brief, 25 mg of decylubiquinone were dissolved in 400 μl of nitrogen-saturated hexane. An equal volume of aqueous 1 M sodium dithionite was added, and the mixture vortexed until colorless. […] Concentrations of decylubiquinol was determined spectrophotometrically on a Cary 300 Bio UV/visible spectrophotometer (Varian, UK) from absolute spectra, using ε288-320=8.1 mM-1·cm^−1. […]
The protocol for the preparation of parasite extract was adapted from Fisher et al. Free parasites were prepared from infected erythrocytes pooled from five T75 flasks, by adding 5 volumes of 0.15% (w/v) saponin in phosphate-buffered saline (137 mM NaCl, 2.7 mM KCl, 1.76 mM K2HPO4, 8.0 mM Na2HPO4, 5.5 mM D-glucose, pH 7.4) for 5 min, followed by three washes by centrifugation in RPMI containing HEPES (25 mM), and a final resuspension in potassium phosphate buffer (50 mM K2HPO4, 50 mM KH2PO4, 2 mM EDTA, pH7.4) containing a protease inhibitor cocktail (Complete Mini; Roche). […] The protein concentration of the parasite extract was determined by Bradford protein assay (Bio-Rad). […]

Cc1[nH]c2c(c(=O)c1-c1ccc(Oc3ccc(OC(F)(F)F)cc3)cc1)CCCC2 [JAG021, 2-methyl-3-(4-(4-(trifluoromethoxy)phenoxy)phenyl)-5,6,7,8-tetrahydroquinolin-4-one]
EGS bradyzoites in treated cultures [1]: not seen | inhibition at 1 µM [2]: 86.4 ± 3.2%
